The structures appear in SMILES notation.

One data set relates to C57BL/6 mice. The data set is described as follows: In vivo delivery of luciferase mRNA lipid nanoparticles in mice (bioluminescence imaging). To be noted: intravenous, single dose 0.5 mg/kg luciferase mRNA. The essentials: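 Female C57BL/6 mice, 6-8 weeks old, received luciferase mRNA lipid nanoparticles as a single intravenous dose of 0.5 mg/kg mRNA. At 6 h, D-luciferin given intraperitoneally; 10 min later, mice were imaged under isoflurane anaesthesia. Values are group mean fluorescence intensity and total photon count.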

A short description of data set [1]: Encapsulation efficiency of lipid nanoparticles (Quant-it RiboGreen RNA Assay). The class given is physicochemical. To be noted: lipid nanoparticles with luciferase mRNA. The essentials:
(§1)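 LNPs of ionizable lipid/cholesterol/phospholipid/PEG-lipid (50/38.5/10/1.5 mol%, N/P 6) were formed by microfluidic mixing with mRNA in pH 4.5 acetate, then buffer-exchanged by ultrafiltration. Size and PDI were measured by DLS. Encapsulation came from RiboGreen fluorescence (485/528 nm) in TE pH 7.5, with and without 0.5% Triton at 37 °C for 30 min.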

Data set [2] is described as follows: Particle size and PDI of lipid nanoparticles by dynamic light scattering. Type of data set: physicochemical. To be noted: lipid nanoparticles with luciferase mRNA; ionizable lipid/cholesterol/DSPC/DMG-PEG2000 50/38.5/10/1.5 mol%. The gist of the method: as §1
Data set [3] in a line: Clearance rate of ionizable lipids in vivo (liver content by LC-MS/MS). The following applies: C57 WT female mice, tail vein, 100 μL unloaded LNP (0.1 mg/mL). How it is done:
The 6-8 weeks old C57 WT female mice (n=3) were injected by tail vein administration of 100 μL of unloaded LNP (0.1 mg/mL) formed from the ionizable lipid, cholesterol, DSPC, and DMG-PEG 2000 at a ratio of 50:38.5:10:1.5. The experimental animals were executed by removing the cervical vertebrae and dissected for the liver at 24 h and 72 h after administration, respectively, while the same batch of non-dosed experimental animal livers were used as a blank control group. Water was added to the liver sample for homogenization, and the protein was precipitated. The content of the ionizable lipid in the sample was quantitatively analyzed using LC-MS/MS in comparison to a calibration standard prepared from matched blank liver tissues.

The subject of data set [4] is HEK293T cells. In words: In vitro delivery efficiency of luciferase mRNA nanoparticles (luciferase expression). Type of data set: cell-based, human. To be noted: 24 h. How it is done: (§2) The delivery effect and safety of nanoparticles encapsulated with luciferase mRNA were evaluated at the cellular level in vitro. The cells used in the assay were human embryonic kidney cells 293 (HEK293T cells) cultured in DMEM (Dulbecco's Modified Eagle Medium) (purchased from Thermo Fisher) containing 10% fetal bovine serum and 5% penicillin-streptomycin double antibiotics at a indoor temperature of 37° C. and a CO2 concentration of 5%. The cells were uniformly dispersed and spread in 48-well plates, and incubated in the incubator for 24 h. Then a solution of the lipid nanoparticles encapsulated with luciferase mRNA were added. After 24 h, the cells were lysed, and the intracellular expression intensity and relative light units (RLU) of luciferase in each type of lipid nanoparticles were measured with a luciferase detection reagent (purchased from Promega). The higher the intensity of expression, the higher the delivery efficiency of the lipid material at the cellular level. […] The absorbance values were read on a multifunctional microplate reader at an absorbance band of 450 nm. The ratio of the absorbance value of the nanoparticle-treated cells to that of the negative control was used as a characterization parameter for cell viability.

The test system of data set [5] is HEK293T cells. In words: Cytotoxicity testing with CCK-8 reagent. Type of data set: cell-based, human. To be noted: CCK-8, 24 h, relative to PBS negative control. How it is done: as §2
For orientation: Formazan colour is commonly taken as a measure of viable cells.

In the case of `CCCCCCCCCOC(=O)CCCCCCCN(CCO)CCCCCCC(C)(C)C(=O)OC(CCCCCCCC)CCCCCCCC` [1a], the “Total photon count in vivo at 6 hours after administration (Total Flux)” value (shortened to “Total photon count in vivo at 6 hours”) in the data set on C57BL/6 mice is 3.52E+10. Also, the “Encapsulation efficiency (%)” value in data set [1] was determined as 94.61%. Moreover, in data set [2], the “Particle size (nm)” value came out at 113.08 nm and the “Particle-size distribution (PDI)” value came out at 0.022. For the same compound, in data set [3], the “Percentage of cationic lipids in the liver in the total dose, 24 h after administration (%)” value (from here on “Percentage … 24 h after administration (%)”) was less than 1% and the “Percentage of cationic lipids in the liver in the total dose, 72 h after administration (%)” value (“Percentage … 72 h after administration (%)” for short) stood at 0%.

As for `CCCCCCCCCC(=O)OCC(C)(C)CCCCCN(CCO)CCCCCCCC(=O)OC(CCCCCCCC)CCCCCCCC` [1b], in the data set with C57BL/6 mice, the “Total photon count in vivo at 6 hours” value was 9.34E+10. Also, the “Encapsulation efficiency (%)” value in data set [1] is 89.89%. Besides, in data set [2], the “Particle size (nm)” value turned out to be 88.59 nm and the “Particle-size distribution (PDI)” value is 0.031. Further, in data set [3], the “Percentage … 24 h after administration (%)” value is 15 ± 4.2% and the “Percentage … 72 h after administration (%)” value is listed as less than 1%.

With `CCCCCCCCCC(=O)OCC(C)(C)CCCCCN(CCCCO)CCCCCCCC(=O)OC(CCCCCCCC)CCCCCCCC` [3b], in the data set with C57BL/6 mice, the “Total photon count in vivo at 6 hours” value came out at 1.41E+11. The “Encapsulation efficiency (%)” value in data set [1] came to 74.43%. In addition, in data set [2], the “Particle size (nm)” value came to 102.32 nm and the “Particle-size distribution (PDI)” value was 0.015. For the same compound, in data set [3], the “Percentage … 24 h after administration (%)” value was found to be 12 ± 3.8% and the “Percentage … 72 h after administration (%)” value is listed as less than 1%.

Take `CCCCCCCCCOC(=O)CCCCCCCN(CCCO)CCCCCCC(C)(C)C(=O)OC(CCCCCCCC)CCCCCCCC` [4a]: the “Total photon count in vivo at 6 hours” value in the data set on C57BL/6 mice is 3.25E+10. Also, in data set [1], the “Encapsulation efficiency (%)” value is 92.87%. In data set [2], the “Particle size (nm)” value was found to be 103.7 nm and the “Particle-size distribution (PDI)” value came to 0.005. In addition, in data set [3], the “Percentage … 24 h after administration (%)” value is less than 1% and the “Percentage … 72 h after administration (%)” value turned out to be 0%.

As to `CCCCCCCCCC(=O)OCC(C)(C)CCCCCN(CCO)CCCCCCCC(=O)OCCC(CCCCCC)CCCCCC` [10b], the “Total photon count in vivo at 6 hours” value in the data set on C57BL/6 mice was found to be 3.15E+10. In data set [1], the “Encapsulation efficiency (%)” value is reported as 72.72%. In addition, in data set [2], the “Particle size (nm)” value is given as 114.72 nm and the “Particle-size distribution (PDI)” value amounted to 0.052. Further, in data set [3], the “Percentage … 24 h after administration (%)” value stood at 5 ± 3.1% and the “Percentage … 72 h after administration (%)” value is less than 1%.

For `CCCCCCCCCC(=O)OCC(C)(C)CCCCCN(CCO)CCCCCCCC(=O)OCCCCC(CCCC)CCCC` [12b], the “Total photon count in vivo at 6 hours” value in the data set with C57BL/6 mice is on record as 1.19E+10. Moreover, in data set [1], the “Encapsulation efficiency (%)” value was 91.04%. In addition, in data set [2], the “Particle size (nm)” value worked out at 104.60 nm and the “Particle-size distribution (PDI)” value is on record as 0.031. In data set [3], the “Percentage … 24 h after administration (%)” value is on record as less than 1% and the “Percentage … 72 h after administration (%)” value stood at 0%.

With `CCCCCCCCCC(=O)OCC(C)(C)CCCCCN(CCO)CCCCCCCC(=O)OCC(CCCCCCC)CCCCCCC` [13b], the “Total photon count in vivo at 6 hours” value in the data set with C57BL/6 mice is listed as 1.81E+11. Also, in data set [1], the “Encapsulation efficiency (%)” value is listed as 89.27%. In addition, in data set [2], the “Particle size (nm)” value was 99.02 nm and the “Particle-size distribution (PDI)” value was determined as 0.018. In addition, in data set [3], the “Percentage … 24 h after administration (%)” value amounted to 8 ± 2.7% and the “Percentage … 72 h after administration (%)” value is given as less than 1%.

Regarding `CCCCCCCCCOC(=O)CCCCCCCN(CCO)CCCCC(C)(C)CCC(=O)OC(CCCCCCCC)CCCCCCCC` [20a], the “Luciferase luminescence of cell lysate” value in the data set on HEK293T cells [4] was found to be 6.55E+06 RLU. In addition, the “Total photon count in vivo at 6 hours” value in the data set on C57BL/6 mice is 1.18E+11. For the same compound, the “Encapsulation efficiency (%)” value in data set [1] is on record as 87.83%. Also, in data set [2], the “Particle size (nm)” value was determined as 102.13 nm and the “Particle-size distribution (PDI)” value came to 0.032. Moreover, the “Cell viability (%)” value with HEK293T cells [5] worked out at 105.11%.

Regarding `CCCCCCCCCC(=O)OCC1(CCCCCN(CCO)CCCCCCCC(=O)OCC(CCCCCCC)CCCCCCC)CC1` [22b], the “Total photon count in vivo at 6 hours” value with C57BL/6 mice was 8.78E+10. The “Encapsulation efficiency (%)” value in data set [1] turned out to be 93.03%. Moreover, in data set [2], the “Particle size (nm)” value amounted to 99.44 nm and the “Particle-size distribution (PDI)” value came to 0.050. Further, in data set [3], the “Percentage … 24 h after administration (%)” value was found to be 2% and the “Percentage … 72 h after administration (%)” value is reported as less than 1%.

Turning to `CCCCCCCCCCOC(=O)OCCCCCCN(CCO)CCCCCC(C)(C)COC(=O)CCC(CCCCCC)CCCCCC` [26b], the “Total photon count in vivo at 6 hours” value in the data set with C57BL/6 mice is given as 6.53E+10. Also, in data set [1], the “Encapsulation efficiency (%)” value is given as 94.58%. In addition, in data set [2], the “Particle size (nm)” value stood at 113.77 nm and the “Particle-size distribution (PDI)” value worked out at 0.14. Besides, in data set [3], the “Percentage … 24 h after administration (%)” value was 8% and the “Percentage … 72 h after administration (%)” value is recorded as less than 1%.

As for `CCCCCCCCCOC(=O)OCCCCCCN(CCO)CCCCCCC(C)(C)C(=O)OC(CCCCCCCC)CCCCCCCC` [30a], the “Total photon count in vivo at 6 hours” value in the data set on C57BL/6 mice amounted to 8.32E+10. The “Encapsulation efficiency (%)” value in data set [1] was determined as 86.94%. In data set [2], the “Particle size (nm)” value stood at 107.40 nm and the “Particle-size distribution (PDI)” value is 0.12. Moreover, in data set [3], the “Percentage … 24 h after administration (%)” value came to 4% and the “Percentage … 72 h after administration (%)” value was less than 2%.

`CCCCCCCCCCC(=O)OCC(C)(C)CCCCCN(CCCCCCCC(=O)OC(CCCCCCCCC)CCCCCCCCC)C(=O)SCCCN(C)C` [39b]: in the data set on C57BL/6 mice, the “Total photon count in vivo at 6 hours” value came out at 7.16E+10. Besides, the “Encapsulation efficiency (%)” value in data set [1] is given as 93.58%. In data set [2], the “Particle size (nm)” value came to 102.67 nm and the “Particle-size distribution (PDI)” value is listed as 0.07. Also, in data set [3], the “Percentage … 24 h after administration (%)” value is less than 1% and the “Percentage … 72 h after administration (%)” value is reported as less than 1%.

With `CCCCC#CCCCOC(=O)CCCCCCCN(CCO)CCCCCCC(C)(C)C(=O)OC(CCCCCCCC)CCCCCCCC` [56a], in the data set with C57BL/6 mice, the “Total photon count in vivo at 6 hours” value is given as 3.23E+10. Also, the “Encapsulation efficiency (%)” value in data set [1] worked out at 82.84%. For the same compound, in data set [2], the “Particle size (nm)” value was 86.37 nm and the “Particle-size distribution (PDI)” value was 0.09. Further, in data set [3], the “Percentage … 24 h after administration (%)” value is recorded as less than 1% and the “Percentage … 72 h after administration (%)” value was less than 1%.

In the case of `CCCCCCCCCOC(=O)C(C)(C)CCCCCCN(CCO)CCCCCCC(C)(C)C(=O)OC(CCCCCCCC)CCCCCCCC` [Control group, reference compound], in data set [3], the “Percentage … 24 h after administration (%)” value came out at 92 ± 3.5% and the “Percentage … 72 h after administration (%)” value is reported as 89 ± 4.7%. For the same compound, the “Percentage … 72 h after administration (%)” value in data set [3] (listed as control group) is recorded as “about 90%”.

`CCCCC/C=C\C/C=C\CCCCCCCCC(CCCCCCCC/C=C\C/C=C\CCCCC)OC(=O)CCCN(C)C` [MC3, DLin-MC3-DMA, reference compound]: in the data set with HEK293T cells [4], the “Luciferase luminescence of cell lysate” value was 2.95E+06 RLU. Moreover, in the data set on C57BL/6 mice, the “Total photon count in vivo at 6 hours” value was 8.04E+09. In data set [1], the “Encapsulation efficiency (%)” value is 95.62%. In data set [2], the “Particle size (nm)” value was found to be 96.83 nm and the “Particle-size distribution (PDI)” value was determined as 0.04. The “Cell viability (%)” value in the data set on HEK293T cells [5] is listed as 97.84%.

These data come from US12617752B2, “Rapidly metabolized lipid compound” (Beijing Jitai Life Sciences Ltd, priority 2023, dated 2026).
